# From patent publication US10590086B2, “Pharmaceutical compound” (IOmet Pharma Ltd., priority 2014, dated 2020)
# Experiments:
# IDO [1] = target: T1, IDO (Homo sapiens, UniProt P14902); experiment: SKOV3 kynurenine cell-based assay (IDO induced by IFN-γ); parameters: IDO expression was induced in the SKOV3 cells by the addition of 500 ng/ml IFN-γ; endogenous in cells; host or cells: SKOV3 (human ovarian adenocarcinoma), induced with IFN-γ; details: 48 hours, read-out: SKOV3 Kynurenine cell based assay pIC50 (converted)
# T1 sequence (P14902 whole entry): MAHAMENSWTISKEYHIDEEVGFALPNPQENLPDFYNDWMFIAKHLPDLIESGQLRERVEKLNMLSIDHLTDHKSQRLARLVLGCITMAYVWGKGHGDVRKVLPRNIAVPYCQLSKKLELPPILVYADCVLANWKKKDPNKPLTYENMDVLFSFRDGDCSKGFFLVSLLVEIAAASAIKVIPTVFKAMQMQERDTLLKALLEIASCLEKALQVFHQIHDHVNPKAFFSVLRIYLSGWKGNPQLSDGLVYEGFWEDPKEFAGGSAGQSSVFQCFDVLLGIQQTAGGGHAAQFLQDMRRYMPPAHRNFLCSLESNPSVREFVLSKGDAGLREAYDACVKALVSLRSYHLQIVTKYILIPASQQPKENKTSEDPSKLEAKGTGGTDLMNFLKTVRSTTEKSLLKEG
# Method in brief: (§1)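 Kynurenine in the culture supernatant was measured by absorbance at 490 nm after 5 minutes with Ehrlich's reagent. Cells had been exposed ±compound for 48 hours at 37 °C in phenol red-free RPMI, 10% FCS, 2 mM L-glutamine and 500 μM L-tryptophan. Seeding was 30,000/well for A172 (TDO) and 40,000/well for SKOV3 (IDO, induced with 500 ng/ml IFN-γ).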
# TDO [2] = target: T2, TDO (Homo sapiens, UniProt P48775); experiment: A172 kynurenine cell-based assay; parameters: This assay utilised cancer cells which expressed either TDO or IDO; endogenous in cells; host or cells: A172 (human glioblastoma); details: A172 human glioblastoma cells, 48 hours, read-out: A172 Kynurenine cell based assay pIC50 (converted)
# T2 sequence (P48775 whole entry): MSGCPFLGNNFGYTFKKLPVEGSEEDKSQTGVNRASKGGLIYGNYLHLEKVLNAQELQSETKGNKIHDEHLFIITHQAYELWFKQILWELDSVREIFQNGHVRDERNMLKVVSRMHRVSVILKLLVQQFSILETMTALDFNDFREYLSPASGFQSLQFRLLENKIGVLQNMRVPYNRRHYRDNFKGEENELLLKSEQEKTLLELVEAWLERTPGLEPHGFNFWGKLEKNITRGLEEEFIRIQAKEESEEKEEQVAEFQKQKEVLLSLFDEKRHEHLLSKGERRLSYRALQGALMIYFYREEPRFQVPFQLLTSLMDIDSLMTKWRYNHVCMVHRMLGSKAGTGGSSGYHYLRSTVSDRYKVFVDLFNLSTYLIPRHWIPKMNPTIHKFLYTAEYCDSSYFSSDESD
# Method in brief: as §1
# IDO [3] = target: T1, IDO; experiment: hIDO biochemical coupled assay; details: 45 μM L-tryptophan, read-out: hIDO biochemical assay pIC50 (converted)
# TDO [4] = target: T2, TDO; experiment: hTDO biochemical coupled assay; details: 330 μM L-tryptophan; for IC50: read-out: hTDO biochemical assay pIC50 (converted)
# [5] = SKOV3 human ovarian adenocarcinoma cells, 500 ng/ml IFN-γ, 500 μM L-tryptophan
# [6] = SKOV3 cells, IDO induced by 500 ng/ml IFN-γ
IC50 (IDO [1]; [5]) [µM],IC50 (TDO [2]; 500 μM L-tryptophan) [µM],"IC50 (IDO [3]; 17 minutes, room temperature) [µM]","IC50 (TDO [4]; 17 minutes, room temperature) [µM]",IC50 (IDO [1]; [6]) [µM],IC50 (TDO [2]) [µM],IC50 (IDO [3]) [µM],hTDO biochemical assay pIC50 (TDO [4]),IC50 (TDO [4]) [µM],Compound
3.24 to 31.6,< 3.16,32.4 to 100,< 3.16,–,–,–,–,–,CNC(=O)NC1CCN(c2cc(Cl)cc3[nH]ncc23)CC1 [Compound 377]
3.24 to 31.6,< 3.16,> 100,< 3.16,–,–,–,–,–,COc1cc(S(C)(=O)=O)ccc1-c1cc(Cl)cc2[nH]ncc12 [Compound 266]
3.24 to 31.6,< 3.16,3.24 to 31.6,< 3.16,10.5,0.339,22.4,6.34,–,"CS(=O)(=O)N1CCN(c2cc(Cl)cc3[nH]ncc23)CC1 [Compound 28, 6-chloro-4-(4-(methylsulfonyl)piperazin-1-yl)-1H-indazole]"
< 3.16,< 3.16,< 3.16,< 3.16,–,–,–,–,–,O=C1NC2(CCN(c3cc(Cl)cc4[nH]ncc34)CC2)C(=O)N1CC1CCCCC1 [Compound 389]
3.24 to 31.6,< 3.16,3.24 to 31.6,< 3.16,–,–,–,–,–,CC1(C)CN(c2cccc3[nH]ncc23)CCN1S(C)(=O)=O [Compound 26]
32.4 to 100,< 3.16,> 100,< 3.16,–,–,–,–,–,Cc1nc2c([nH]1)CN(c1cc(C(F)(F)F)cc3[nH]ncc13)CC2 [Compound 212]
< 3.16,3.24 to 31.6,32.4 to 100,< 3.16,–,–,–,–,–,O=C1Nc2ccccc2NC12CCN(c1cc(Cl)cc3[nH]ncc13)CC2 [Compound 404]
3.24 to 31.6,< 3.16,> 100,< 3.16,–,–,–,–,–,CNC(=O)CC1CCN(c2cc(Cl)cc3[nH]ncc23)CC1 [Compound 364]
32.4 to 100,3.24 to 31.6,> 100,3.24 to 31.6,–,–,–,–,–,O=S(=O)(C1CC1)N1CCN(c2cccc3[nH]ncc23)CC1 [Compound 19]
3.24 to 31.6,< 3.16,32.4 to 100,< 3.16,–,–,–,–,–,Cc1cc(S(C)(=O)=O)ccc1-c1cc(Cl)cc2[nH]ncc12 [Compound 268]
3.24 to 31.6,3.24 to 31.6,> 100,32.4 to 100,–,–,–,–,–,CC(=O)N(C)c1cc(N2CCN(S(C)(=O)=O)C(C)(C)C2)c2cn[nH]c2c1 [Compound 311]
3.24 to 31.6,< 3.16,32.4 to 100,< 3.16,–,–,–,–,–,CNS(=O)(=O)c1ccc(-c2cc(Cl)cc3[nH]ncc23)cc1 [Compound 300]
3.24 to 31.6,< 3.16,32.4 to 100,< 3.16,–,–,–,–,–,CC(=O)N1CCC2(CCN(c3cc(Cl)cc4[nH]ncc34)CC2)C1 [Compound 350]
3.24 to 31.6,< 3.16,> 100,< 3.16,–,–,–,–,–,Cc1nn(C)c2c1CN(c1cc(Cl)cc3[nH]ncc13)CC2 [Compound 376]
3.24 to 31.6,< 3.16,3.24 to 31.6,< 3.16,–,–,–,–,–,CC1(C)CN(c2cc(OC(F)(F)F)cc3[nH]ncc23)CCN1S(C)(=O)=O [Compound 219]
3.24 to 31.6,< 3.16,> 100,< 3.16,–,–,–,–,–,CNC(=O)c1ccc(-c2cc(Cl)cc3[nH]ncc23)cc1 [Compound 257]
3.24 to 31.6,< 3.16,3.24 to 31.6,< 3.16,–,–,–,–,–,CN(C1CCN(c2cc(Cl)cc3[nH]ncc23)CC1(C)C)S(C)(=O)=O (stereo not shown) [Compound 449]
< 3.16,< 3.16,> 100,< 3.16,–,–,–,–,–,CNC(=O)c1ccc(N2CCN(c3cc(Cl)cc4[nH]ncc34)CC2)cc1 [Compound 445]
3.24 to 31.6,< 3.16,3.24 to 31.6,< 3.16,–,–,–,–,–,Clc1cc(N2CCC(c3nccs3)CC2)c2cn[nH]c2c1 [Compound 313]
3.24 to 31.6,< 3.16,32.4 to 100,< 3.16,–,–,–,–,–,NS(=O)(=O)N1CCC2(CCN(c3cc(Cl)cc4[nH]ncc34)CC2)CC1 [Compound 363]
3.24 to 31.6,< 3.16,3.24 to 31.6,< 3.16,–,–,–,–,–,CC(C)N1C(=O)NC2(CCN(c3cc(Cl)cc4[nH]ncc34)CC2)C1=O [Compound 316]

IC50 (IDO [1]; [5]) [µM],IC50 (TDO [2]; 500 μM L-tryptophan) [µM],"IC50 (IDO [3]; 17 minutes, room temperature) [µM]","IC50 (TDO [4]; 17 minutes, room temperature) [µM]",IC50 (IDO [1]; [6]) [µM],IC50 (TDO [2]) [µM],IC50 (IDO [3]) [µM],hTDO biochemical assay pIC50 (TDO [4]),IC50 (TDO [4]) [µM],Compound
32.4 to 100,3.24 to 31.6,32.4 to 100,< 3.16,–,–,–,–,–,Cc1nc2c([nH]1)CN(c1cc(Cl)cc3[nH]ncc13)CC2 [Compound 211]
32.4 to 100,3.24 to 31.6,> 100,> 100,–,–,–,–,–,CS(=O)(=O)N1CCN(c2cc(C(F)(F)F)cc3[nH]ncc23)C2CCCCC21 (stereo not shown) [Compound 340]
32.4 to 100,3.24 to 31.6,> 100,3.24 to 31.6,–,–,–,–,–,CNC(=O)C1CCCN(c2cc(Cl)cc3[nH]ncc23)C1 (stereo not shown) [Compound 210]
3.24 to 31.6,< 3.16,3.24 to 31.6,< 3.16,9.55,0.0135,11.7,–,0.0851,"OC1(c2cc(Cl)cc3[nH]ncc23)CCCCC1 [Compound 273, 1-(6-chloro-1H-indazol-4-yl)cyclohexanol]"
> 100,< 3.16,< 3.16,< 3.16,–,–,–,–,–,CC(=O)NCCN1C(=O)NC2(CCN(c3cc(Cl)cc4[nH]ncc34)CC2)C1=O [Compound 412]
< 3.16,< 3.16,< 3.16,< 3.16,–,–,–,–,–,O=C1NC2(CCN(c3cc(Cl)cc4[nH]ncc34)CC2)C(=O)N1CC1CC1 [Compound 390]
3.24 to 31.6,< 3.16,> 100,< 3.16,–,–,–,–,–,CC(=O)Nc1ccc2c(c1)CCN(c1cc(Cl)cc3[nH]ncc13)C2 [Compound 358]
3.24 to 31.6,< 3.16,3.24 to 31.6,< 3.16,–,–,–,–,–,O=C1NCC2(CCN(c3cc(Cl)cc4[nH]ncc34)CC2)N1 [Compound 267]
3.24 to 31.6,< 3.16,> 100,< 3.16,–,–,–,–,–,CS(=O)(=O)N1CCC(n2cc(-c3cc(Cl)cc4[nH]ncc34)cn2)CC1 [Compound 347]
3.24 to 31.6,< 3.16,3.24 to 31.6,< 3.16,–,–,–,–,–,CC1(C)CN(c2cc(Cl)cc3[nH]ncc23)CCC1NS(C)(=O)=O (stereo not shown) [Compound 336]
< 3.16,< 3.16,< 3.16,< 3.16,–,–,–,–,–,O=C1NC(=O)C2(CCN(c3cc(Br)cc4[nH]ncc34)CC2)N1 [Compound 290]
3.24 to 31.6,< 3.16,3.24 to 31.6,< 3.16,–,–,–,–,–,O=C1CC2(CCN(c3cc(Cl)cc4[nH]ncc34)CC2)CN1 [Compound 280]
3.24 to 31.6,< 3.16,32.4 to 100,< 3.16,–,–,–,–,–,C[C@H]1CN(S(C)(=O)=O)CCN1c1cc(C(F)(F)F)cc2[nH]ncc12 [Compound 214]
32.4 to 100,32.4 to 100,> 100,> 100,–,–,–,–,–,CS(=O)(=O)N1CCC(c2cc(C3CCOCC3)cc3[nH]ncc23)CC1 [Compound 325]
32.4 to 100,3.24 to 31.6,> 100,32.4 to 100,–,–,–,–,–,O=S(=O)(c1ccccc1)N1CCN(c2cccc3[nH]ncc23)CC1 [Compound 15]
< 3.16,< 3.16,< 3.16,< 3.16,–,–,–,–,–,O=C1NC2(CCN(c3cc(Cl)cc4[nH]ncc34)CC2)C(=O)N1CC(F)(F)F [Compound 405]
> 100,< 3.16,32.4 to 100,3.24 to 31.6,–,–,–,–,–,Clc1cc(N2CCCCC2)c2cn[nH]c2c1 [Compound 308]
> 100,3.24 to 31.6,> 100,32.4 to 100,–,–,–,–,–,CC(=O)N1CCN(c2ccc3[nH]ncc3c2)CC1 [Compound 41]
> 100,< 3.16,> 100,< 3.16,–,–,–,–,–,Cn1ccnc1N1CCN(c2cc(Cl)cc3[nH]ncc23)CC1 [Compound 436]
3.24 to 31.6,< 3.16,> 100,< 3.16,–,–,–,–,–,NC(=O)c1ccc(-c2cc(Cl)cc3[nH]ncc23)cc1 [Compound 256]
> 100,3.24 to 31.6,> 100,3.24 to 31.6,–,–,–,–,–,"CS(=O)(=O)N1CCN(c2cc(C(F)(F)F)cc3[nH]ncc23)C2CCCCC21 (single isomer, unassigned) [Compound 415]"

Compound,IC50 (IDO [1]; [5]) [µM],IC50 (TDO [2]; 500 μM L-tryptophan) [µM],"IC50 (IDO [3]; 17 minutes, room temperature) [µM]","IC50 (TDO [4]; 17 minutes, room temperature) [µM]",IC50 (IDO [1]; [6]) [µM],IC50 (TDO [2]) [µM],IC50 (IDO [3]) [µM],hTDO biochemical assay pIC50 (TDO [4]),IC50 (TDO [4]) [µM]
Clc1cc(N2C[C@H]3CC[C@@H](C2)NC3)c2cn[nH]c2c1 [Compound 448],> 100,< 3.16,3.24 to 31.6,< 3.16,–,–,–,–,–
CC(=O)N1C2CCC1CN(c1cc(Cl)cc3[nH]ncc13)C2 [Compound 231],3.24 to 31.6,< 3.16,3.24 to 31.6,< 3.16,–,–,–,–,–
